“And” between values parts separate entries of the source, which are not always exact repeats. Equal entries are not always repeated. The source made the active and inactive calls. No rule for the calls is given here.

The target in this assay is Peptidyl-prolyl cis-trans isomerase FKBP1A (Homo sapiens) (UniProt P62942). Put plainly: small-molecule binding to FKBP12 – biophysical, NMR detection (AID 608). The settings on record: purified FKBP12.
Peptidyl-prolyl cis-trans isomerase FKBP1A (Homo sapiens), sequence (P62942 whole entry, looked up): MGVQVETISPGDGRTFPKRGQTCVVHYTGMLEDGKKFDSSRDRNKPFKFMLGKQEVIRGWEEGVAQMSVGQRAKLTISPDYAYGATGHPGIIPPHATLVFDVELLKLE
By Kd is commonly meant a measure of binding affinity in units of concentration. Regarding `Cn1[nH]c(C(F)(F)F)cc1=O`, the Kd was > 4 mM (inactive). Turning to `COc1c(O)cc2c(c1O)[C@H]1O[C@H](CO)[C@@H](O)[C@H](O)[C@@H]1OC2=O`, the Kd was > 4 mM (inactive). In the case of `Cc1nc(N2CCOCC2)[nH]c(=O)c1C` it was > 4 mM (inactive); in that of `c1coc(CNc2ncnc3nc[nH]c23)c1`, > 4 mM (inactive).

In the case of `OCC1Cc2ccccc2CN1` (stereo not drawn), the Kd is > 4 mM (inactive). On to `COc1nc(C)ccc1-c1noc(-c2ccco2)n1`, for which the Kd was > 4 mM (inactive). With `NC(=O)CC[C@H](N)C(=O)O` the figure was > 4 mM (inactive); with `CC1CCC2(OC1)OC1CC3C4CCC5C[C@@H](O)CCC5(C)C4=CCC3(C)C1[C@@H]2C` (stereo partly drawn), > 4 mM (inactive); with `O=C(NCC1CCCCC1)c1ccco1`, > 4 mM (inactive). In the case of `CC1(C)CC(=O)c2sc(N)nc2C1` it was > 4 mM (inactive); in that of `S=c1nc[nH]c2c1cnn2-c1ccccc1`, > 4 mM (inactive). For the compound `Cn1ccc(NC(=S)NC2CCCC2)n1`, the Kd was > 4 mM (inactive). For the compound `O=C(Nc1ccccc1)Nc1ccccc1`, the Kd was > 4 mM (inactive). In the case of `O=C1NC(=S)NC(=O)C1=Cc1cccs1` it was > 4 mM (inactive). With `O=C(O)c1cc(=O)[nH]c2ccccc12`, the Kd is > 4 mM (inactive). With `O=C(Cc1ccc(F)cc1)Nc1ncccn1` the figure was > 4 mM (inactive); with `O=C(Cn1c(-c2cscn2)nc2ccccc21)Nc1ccccc1F`, > 13.6 mM (inactive). In the case of `Nc1cccc(OC(F)(F)F)c1` it was > 4 mM (inactive); in that of `CC(Sc1ncn[nH]1)C(=O)O` (stereo not drawn), > 4 mM (inactive). With `CC(=O)Nc1cccs1`, the Kd was > 4 mM (inactive).

`O=C(CNC(=O)c1cccs1)NC1=NCCS1`: the Kd was > 4 mM (inactive). In the case of `CCC[C@H]1CC2=C(C[C@@H](CC)CC3=C1C(=O)OC3=O)C(=O)OC2=O` it was > 4 mM (inactive); in that of `O=C1C(=O)N(CN2CCN(CCO)CC2)c2ccccc21`, > 4 mM (inactive). With `COc1cccc(/C=N/N=C2/NC(=O)CS2)c1` the figure was > 4 mM (inactive); with `c1ccc2[nH]c(-c3cscn3)nc2c1`, 0.111 mM and 0.056 mM. In the case of `N=c1n(N)c2ccccc2n1CCO` it was > 4 mM (inactive). On to `CCOCC(=O)NCc1n[nH]c(=O)c2ccccc12`, for which the Kd was > 4 mM (inactive). With `NC(=O)Cc1nc2ccccc2[nH]1` the figure was > 4 mM (inactive); with `Nc1cc(-c2ccco2)[nH]n1`, > 4 mM (inactive); with `CCSc1nc(=S)n(CC)c(C)c1C(C)=O`, > 4 mM (inactive). As to `Cn1nc(-c2ccccc2)cc1N`, the Kd was > 4 mM (inactive). In the case of `O=[N+]([O-])c1cccc(-c2c[n+](=O)c3c(n2[O-])CCC3)c1` it was > 4 mM (inactive). In the case of `Cc1nc2c(=O)[nH]c3ccccc3c2o1` it was > 4 mM (inactive).

Consider `O=C1N=c2ccccc2=C1c1sc(=S)[nH]c1O`, for which the Kd was > 4 mM (inactive). With `COc1ccc(C)cc1S(=O)(=O)Nc1ccccc1C` the figure was > 4 mM (inactive); with `OCC1CCCCCN1` (stereo not drawn), > 4 mM (inactive); with `Cc1c(-c2ccccc2)[n+](=O)c(-c2ccco2)c(C)n1[O-]`, > 4 mM (inactive).

With `Oc1ccccc1N1CCCC1`, the Kd is > 4 mM (inactive). As for `COC1=CC(C)[C@@H]2C[C@H]3OC(=O)C[C@H]4C(C)=C(OC)C(=O)C([C@@]34C)[C@@]2(C)C1=O` (stereo partly drawn), the Kd was > 4 mM (inactive). In the case of `Cc1nn(CC(=O)Nc2ccccc2)c(=O)c2ccccc12` it was > 4 mM (inactive). For the compound `CC(=O)NC(=S)Nc1ccccc1N1CCOCC1`, the Kd is > 4 mM (inactive).

Turning to `c1ccc(-c2noc(-c3ccc4c(c3)OCO4)n2)nc1`, the Kd was > 4 mM (inactive). Turning to `CC(C)CCCC(C)C1CCC2C3CC(=O)[C@H]4C[C@@H](O)CC[C@]4(C)C3CC[C@]12C` (stereo partly drawn), the Kd is > 4 mM (inactive).

For `CCN(CC)C(=O)c1n[nH]c(=O)c2ccccc12`, the Kd was > 4 mM (inactive). In the case of `COc1cc2ccc(=O)oc2c2ccoc12` it was > 4 mM (inactive); in that of `COC(=O)C[C@@H]1C2(C)C(=O)[C@@H](CC3=C4C=C(OC)O[C@@H](c5ccoc5)[C@]4(C)CCC32)[C@H](O)C1(C)C` (stereo partly drawn), > 4 mM (inactive); in that of `COC(=O)C1COCCN1C(=O)CSc1ccc(C(C)C)cc1` (stereo not drawn), 0.0003 mM. In the case of `CC(=O)N1CCC(NC2CCCCCC2)CC1` it was > 4 mM (inactive); in that of `CC1O[C@@H](Oc2c(-c3ccc(O)c(O)c3)oc3cc(O)cc(O)c3c2=O)[C@H](O)[C@H](O)[C@H]1O` (stereo partly drawn), > 4 mM (inactive). `Cc1nc2[nH]onc2c2nccc(=O)c12`: the Kd is > 4 mM (inactive).

For `CC1(NC(=O)NCc2ccccc2)CCS(=O)(=O)C1` (stereo not drawn), the Kd was > 4 mM (inactive). With `CN(C)C(=S)Nc1ccc([N+](=O)[O-])cc1` the figure was > 4 mM (inactive); with `COC(=O)c1cncn1C`, > 4 mM (inactive); with `C[C@H]1[C@H](C)CC[C@]2(C(=O)O)CC[C@]3(C)C(=CCC4[C@@]5(C)C[C@@H](O)[C@H](O)[C@@](C)(CO)C5[C@H](O)C[C@]43C)[C@H]12` (stereo partly drawn), > 4 mM (inactive).

Consider `Cc1cc(C(=O)Nc2sc(C)c(C)c2C#N)no1`, for which the Kd was > 4 mM (inactive).

As for `O=c1[nH]c(O)c(C=NCc2cccs2)c(=O)[nH]1`, the Kd was > 4 mM (inactive). In the case of `CCOc1ccc(C(=O)c2ccc(OC)c(O)c2O)cc1`, the Kd was > 4 mM (inactive). For the compound `COc1ccccc1-c1nc(=S)[nH][nH]1`, the Kd is > 4 mM (inactive). In the case of `CN(C)C(=O)Oc1ccc(-c2nnco2)cc1` it was > 4 mM (inactive).

Consider `Oc1ccc(-n2ccnc2)cc1`, for which the Kd was > 4 mM (inactive).

For `Cc1cc(=O)cc(C)n1NC(N)=S`, the Kd is > 4 mM (inactive). As to `Cc1ccc(C)n1CCN1CCNCC1`, the Kd was > 4 mM (inactive). `COc1ccc(S(=O)(=O)N2CCOCC2)cc1C(C)C`: the Kd is > 4 mM (inactive). In the case of `Nc1nc(-c2nc3ccccc3[nH]2)cs1` it was 0.068 mM and 0.098 mM; in that of `NCc1ccc2c(c1)OCCO2`, > 4 mM (inactive); in that of `Cc1ccc(SCc2cc(=O)n3[nH]c(C)nc3n2)cc1`, > 4 mM (inactive). In the case of `O=C1CSC(=O)N1CN1CCCC1` it was > 4 mM (inactive); in that of `COC(=O)C[C@H]1C(C)(C)C(=O)[C@@H]2CC3=C4CC(=O)O[C@@H](c5ccoc5)[C@]4(C)CCC3C1(C)C2=O` (stereo partly drawn), > 4 mM (inactive); in that of `O=C(O)CCC(=O)c1c[nH]c2ccccc12`, > 4 mM (inactive).

Regarding `Cc1cc(O)cc(=O)o1`, the Kd was > 4 mM (inactive). With `C[C@@H]1C(=O)O[C@H]2[C@H]1CC[C@@]1(C)C=CC(=O)[C@@]3(C)O[C@@]213` the figure was > 4 mM (inactive); with `Cn1c(=O)cc(N2CCCCC2)[nH]c1=O`, > 4 mM (inactive); with `Cc1[nH]c2ccccc2c1C(=O)CSc1ncn[nH]1`, > 4 mM (inactive).

Turning to `NC(=O)CCn1c(=O)oc2ccccc21`, the Kd was > 4 mM (inactive).

As to `CC(C)(C)C(=O)N1CCCC1C(=O)O` (stereo not drawn), the Kd was > 4 mM (inactive). With `CN(C)C(=O)CSc1nc(N)cc(=O)[nH]1` the figure was > 4 mM (inactive); with `NC(=O)c1ccsc1NC(=O)c1ccco1`, > 4 mM (inactive); with `CC(C)c1ccc(SCC(=O)N2CCOCC2)cc1`, 5e-05 mM. In the case of `OCc1ccc2c(c1)OCCCO2`, the Kd was > 4 mM (inactive). With `O=C1c2ccccc2C(=O)c2c1ccc(O)c2O` the figure was > 4 mM (inactive).

Take `C=C1C2CC[C@@]3(C)[C@H](c4ccoc4)OC(=O)C[C@]13O[C@H]1CC(=O)C(C)(C)[C@H](C(OC(C)=O)C(=O)OC)[C@@]21C` (stereo partly drawn): the Kd was > 4 mM (inactive).

As to `O=S1(=O)C=CC(Nc2ccccc2)C1` (stereo not drawn), the Kd was > 4 mM (inactive). In the case of `O=C(COc1ccccc1F)N1CCOCC1` it was “inactive”; in that of `NCc1csc(-c2ccccc2)n1`, > 4 mM (inactive); in that of `NC(=O)C1CCN(c2ncnc(N)c2[N+](=O)[O-])CC1`, > 4 mM (inactive). Consider `O=C(O)CCCCCCCCCCCCC1C=CCC1` (stereo not drawn), for which the Kd is > 4 mM (inactive). With `COc1ccc(/C=C2/N=C(N)SC2=O)cc1` the figure was > 4 mM (inactive); with `CC(C)c1ccc2c(c1)CCC1[C@](C)(CN)CCC[C@]21C` (stereo partly drawn), > 4 mM (inactive); with `CC(=O)Nn1cc2c(=O)n(C)c(=O)n(C)c2c1`, > 4 mM (inactive). For the compound `COc1c2c(cc3c1OCO3)CCN(C)C2`, the Kd is > 4 mM (inactive). With `O=C(O)c1cccnc1Oc1ccccc1` the figure was > 4 mM (inactive); with `O=C1C2C3C=CC(C3)C2C(=O)N1c1nccs1` (stereo not drawn), > 4 mM (inactive). With `O=C(Nc1cccnc1)N1CCOCC1` the figure was > 4 mM (inactive). Turning to `Cn1c(SCC(N)=O)nnc1-c1c[nH]c2ccccc12`, the Kd was > 4 mM (inactive). With `C(=N\c1nccs1)/c1cccnc1` the figure was > 4 mM (inactive); with `CCOC(=O)c1c(C)cc(O)c(C=O)c1O`, > 4 mM (inactive); with `O=C1C2C3CCC(O3)C2C(=O)N1c1ccccc1` (stereo not drawn), > 4 mM (inactive). In the case of `O=C(Nc1ccncc1)Nc1ccc(F)cc1F` it was > 4 mM (inactive). On to `S=C(NC1CC1)NN1CCOCC1`, for which the Kd is > 4 mM (inactive). In the case of `Cc1nc(-c2ccc(C(=O)N3CCOCC3)cc2)cs1` it was > 4 mM (inactive); in that of `O=C(Cc1cccs1)Nc1ccon1`, > 4 mM (inactive). As for `CC1(C)CC2(C)N(N)C(=O)CN2C(=S)N1` (stereo not drawn), the Kd was > 4 mM (inactive). In the case of `CC(C)[C@@H]1CC[C@@H](C)C[C@H]1OC(=O)c1ccccc1`, the Kd is > 4 mM (inactive).

(Values after PubChem BioAssay AID608 (Sanford-Burnham Center for Chemical Genomics, 2007).)
